# Test results taken from patent publication US20060171945A1, “Ip receptor antagonists for the treatment of pathological uterine conditions” (priority 2003, published 2006).
# pIC50: −log10 of the molar value. Values joined by “and” are separate entries in the source; they are usually repeats but may differ in a detail not shown here. Identical values can stand only once.
# Assays:
# TP = details: 10 μM; cited from earlier work
# DP = details: 10 μM; cited from earlier work
# FP receptor = details: cited from earlier work
# EP4 = details: 10 μM; cited from earlier work
# EP2 = EP2 (Homo sapiens, UniProt P43116); details: 10 μM; cited from earlier work
# EP2, sequence (P43116 whole entry): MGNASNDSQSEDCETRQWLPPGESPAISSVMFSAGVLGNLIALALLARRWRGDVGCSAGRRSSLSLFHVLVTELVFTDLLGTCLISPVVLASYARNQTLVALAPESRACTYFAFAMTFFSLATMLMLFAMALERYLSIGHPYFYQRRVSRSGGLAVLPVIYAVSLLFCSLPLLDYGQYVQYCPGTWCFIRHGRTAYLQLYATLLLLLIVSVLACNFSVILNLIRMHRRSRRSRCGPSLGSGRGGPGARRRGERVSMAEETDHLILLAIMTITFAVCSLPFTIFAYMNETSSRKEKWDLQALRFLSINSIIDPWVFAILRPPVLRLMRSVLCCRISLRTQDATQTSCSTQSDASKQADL
# COX-2 = biological target: T1, COX-2 (Homo sapiens, UniProt P35354); details: cited from earlier work
# T1 sequence (P35354 18-604): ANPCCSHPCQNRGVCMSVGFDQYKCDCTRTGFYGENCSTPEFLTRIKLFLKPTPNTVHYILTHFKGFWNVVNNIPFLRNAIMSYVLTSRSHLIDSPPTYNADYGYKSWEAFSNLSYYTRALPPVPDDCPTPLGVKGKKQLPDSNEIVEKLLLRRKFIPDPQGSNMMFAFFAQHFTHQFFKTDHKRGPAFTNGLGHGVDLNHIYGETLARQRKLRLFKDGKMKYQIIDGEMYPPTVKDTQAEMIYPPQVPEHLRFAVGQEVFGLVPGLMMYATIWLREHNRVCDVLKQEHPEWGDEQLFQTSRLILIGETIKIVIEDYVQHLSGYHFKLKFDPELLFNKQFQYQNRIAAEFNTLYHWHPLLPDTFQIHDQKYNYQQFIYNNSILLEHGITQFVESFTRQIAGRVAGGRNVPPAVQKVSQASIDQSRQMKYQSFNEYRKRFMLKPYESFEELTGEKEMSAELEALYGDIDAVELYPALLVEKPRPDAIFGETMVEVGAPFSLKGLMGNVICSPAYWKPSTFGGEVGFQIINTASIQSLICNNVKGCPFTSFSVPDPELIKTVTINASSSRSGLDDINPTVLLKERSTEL
# [1] = test system: endometrial epithelial and stromal cells; details: previously reported; cited from earlier work
# [2] = test system: Ishikawa endometrial epithelial cell line; assay: Proliferation assay (CellTiter 96) in Ishikawa cells; format: cell-based, human; details: 100 nM iloprost, 24 hours, n=5, mean±SEM
# Excerpt: (§1) The Ishikawa endometrial epithelial cell line (Ishikawa cells) and endometrial stromal (ES) cells were propagated in DMEM F12 culture medium with glutamax (Invitrogen Ltd., Paisley, UK) supplemented with 10% foetal bovine serum (PAA Laboratories Ltd., Yeovil, UK). Endometrial stromal cells were a generous gift from Professor R W Kelly and they were derived from human endometrial biopsy tissue as described previously (Dunn et al (2002) J Clin Endocrinol Metab 87, 1898-1901). For cyclic AMP assay, cells were grown in 6 well plates to 70% confluence. They were starved overnight in serum free medium in the presence of indomethacin (3 μg/ml). Cells were then incubated in the same medium containing 1-methyl-3-isobutylxanthine at 37° C. for 30 minutes and treated with control medium or 100 nM iloprost for 10 minutes at 37° C. […] Data are presented as mean±SEM percentage increase in cAMP after treatment with iloprost, where the increase was calculated relative to the control samples. […] Proliferation was assessed using a colorimetric method, the CellTiter 96 Aqueous One Solution Cell Proliferation Assay (Promega, Southampton, UK) according to manufacturer's instructions. Twenty microlitres of the assay reagent (containing a tetrazolium compound, inner salt and an electron coupling reagent) were added to each well and samples were incubated at 37° C. for 2 hours and plates were read at 492 nm. […]
# IP receptor [3] = biological target: T2, IP receptor (Homo sapiens, UniProt P43119); assay: Whole tissue cyclic AMP assay in endometrial biopsy tissue; format: cell-based; details: 100 nM iloprost, 10 min, n=4
# T2 construct: from tissue; host or cells: minced human endometrial biopsy tissue
# T2 sequence (P43119 whole entry): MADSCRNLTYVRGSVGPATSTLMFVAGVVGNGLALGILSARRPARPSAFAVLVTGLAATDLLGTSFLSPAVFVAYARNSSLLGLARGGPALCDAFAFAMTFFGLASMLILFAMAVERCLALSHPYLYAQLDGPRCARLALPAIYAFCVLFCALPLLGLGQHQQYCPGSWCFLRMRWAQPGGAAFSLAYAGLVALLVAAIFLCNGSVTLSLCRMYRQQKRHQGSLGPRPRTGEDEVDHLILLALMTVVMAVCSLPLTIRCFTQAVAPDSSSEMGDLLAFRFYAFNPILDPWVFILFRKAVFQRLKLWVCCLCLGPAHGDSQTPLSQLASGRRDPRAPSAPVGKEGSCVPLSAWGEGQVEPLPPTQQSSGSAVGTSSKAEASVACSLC
# Experimental: Endometrial biopsies from across the menstrual cycle (n=8) were minced finely with scissors and divided into three portions. The tissue was incubated is overnight at 37° C. in a humidified 5% CO2 incubator in 2 ml RPMI (Sigma, UK) medium containing, 2 mmol” L-glutamine, 100 IU penicillin and 100 μg streptomycin and 3 μg/ml indomethacin (Sigma, Poole, UK). Following overnight incubation, the tissue was incubated in the same medium containing 1-methyl-3-isobutylxanthine (Sigma) at 37° C. for 30 min. It was then treated with control medium or 100 nM iloprost (a gift from Schering Health Care, Burgess Hill, UK) for 10 min. at 37° C. and lysed in 0.1M HCl and frozen until assayed. cAMP concentration was measured by ELISA (Biomol, Affiniti, Exeter, UK) according to the manufacturer's instructions and normalised to protein concentration determined by a modification of the method of Lowry (Bio-Rad, Hemel Hempstead, UK).
# [4] = test system: endometrial stromal (ES) cells; assay: Proliferation assay (CellTiter 96) in ES cells; format: cell-based, human; details: 100 nM iloprost, 24 hours, n=6, mean±SEM
# Excerpt: as §1
# IP receptor [5] = biological target: T2, IP receptor; assay: Cyclic AMP assay in Ishikawa cells; format: cell-based; details: 100 nM iloprost, 10 min, n=3, mean±SEM
# Excerpt: as §1
# IP receptor [6] = biological target: T2, IP receptor; assay: Cyclic AMP assay in endometrial stromal (ES) cells; format: cell-based; details: 100 nM iloprost, 10 min, n=3, mean±SEM
# Excerpt: as §1
# PGES = biological target: T3, PGES (Homo sapiens, UniProt O14684); details: read-out: IC50 for inhibition of PGES activity; cited from earlier work
# T3 sequence (O14684 1-152): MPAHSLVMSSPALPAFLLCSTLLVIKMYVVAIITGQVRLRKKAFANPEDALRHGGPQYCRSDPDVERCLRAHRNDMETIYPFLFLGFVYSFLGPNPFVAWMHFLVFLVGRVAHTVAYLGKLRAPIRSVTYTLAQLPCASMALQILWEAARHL
compound,measurement,setting,value
"O=C(O)CCC/C=C\C[C@@H]1[C@@H](/C=C/[C@H](O)C2Cc3ccccc3C2)[C@@H](F)C[C@@H]1O [AL-8810, (5Z, 13E)-(9S, 11S,15R)-9,15-dihydroxy-11-fluoro-15-(2-indanyl)-16, 17, 18, 19, 20-pentanor-5,13-prostadienoic acid]",inhibition of functional responses of TP receptor,TP,not to significantly inhibit
same,inhibition of functional responses of DP receptor,DP,not to significantly inhibit
same,FP receptor antagonist potency,FP receptor,micromolar potency
same,inhibition of functional responses of EP4 receptor,EP4,not to significantly inhibit
same,inhibition of functional responses of EP2 receptor,EP2,not to significantly inhibit
CS(=O)(=O)Nc1cc2c(cc1Sc1ccc(F)cc1F)C(=O)CC2 [L 475 L337],specificity for COX-2 inhibition over COX-1 inhibition,COX-2,500 fold
"CS(=O)(=O)Nc1ccc([N+](=O)[O-])cc1Oc1ccccc1 [Nimesulide, N-(4-nitro-2-phenoxyphenyl) methanesulfonamide]",specificity for COX-2 inhibition over COX-1 inhibition,COX-2,100 fold
CCCCC[C@H](O)/C=C/[C@H]1[C@H](O)CC(=O)[C@@H]1C/C=C\CCCC(=O)O [PGE2],increase in proliferation,[1],25%
CCCCC[C@H](O)/C=C/[C@@H]1[C@@H](C/C=C\CCCC(=O)O)[C@@H](O)C[C@H]1O [PGF2α],increase in proliferation,[1],31%
CC#CCC(C)[C@H](O)/C=C/[C@@H]1[C@H]2C/C(=C/CCCC(=O)O)C[C@H]2C[C@H]1O (stereo partly shown) [iloprost],"proliferation, of control values",[2],109.4%±2.4%
same,fold increase in cAMP generation,IP receptor [3]; samples from proliferative phase of the menstrual cycle,4.83±0.74 fold
same,fold increase in cAMP generation,IP receptor [3]; samples from secretory phase of the menstrual cycle,2.07±0.38 fold and 2.07±0.39 fold
same,"proliferation, of control values",[4],112%±3.8%
same,"cAMP generation, of control values",IP receptor [5],166%±27.6%
same,"cAMP generation, of control values",IP receptor [6],"37,936%±18,464%"
CCCCC/C=C\C\C=C/C=C/C=C/[C@@H](SC[C@H](NC(=O)CC[C@H](N)C(=O)O)C(=O)NCC(=O)O)[C@@H](O)CCCC(=O)O [leukotriene C4],pIC50,PGES,5.30
CSc1ccc(/C=C2/C(C)=C(CC(=O)O)c3cc(F)ccc32)cc1 [sulindac sulphide],pIC50,PGES,4.10
Cc1ccc(S(=O)(=O)NC(=O)NN2CCCCCC2)cc1 [tolazamide],FP receptor antagonist potency,FP receptor,very weak antagonists
CCCCNC(=O)NS(=O)(=O)c1ccc(C)cc1 [tolbutamide],FP receptor antagonist potency,FP receptor,very weak antagonists
